Data as given in patent US20060041123A1, “Antibacterial agents” (priority 2002, published 2006).
Where two headings read alike, the source gives them in different places.

Test: Antimicrobial activity assay: whole-cell MIC by broth microdilution (NCCLS M7-A6)
Type: cell-based
Experimental: Whole-cell antimicrobial activity was determined by broth microdilution using the National Committee for Clinical Laboratory Standards (NCCLS) recommended procedure, Document M7-A6, “Methods for Dilution Susceptibility Tests for Bacteria that Grow Aerobically”. The compounds were tested in serial two-fold dilutions ranging from 0.016 to 16 mcg/mL. Compounds were evaluated against a panel of Gram-positive organisms, including Staphylococcus aureus WCUH29, Streptococcus pneumoniae 1629, Streptococcus pyogenes CN 10, and Enterococcus faecalis 2. In addition, compounds were evaluated against a panel of Gram-negative strains including Haemophilus influenzae NEMC1, E. coli 7623, and Moraxella catarrhalis Ravasio. The minimum inhibitory concentration (MIC) was determined as the lowest concentration of compound that inhibited visible growth. A mirror reader was used to assist in determining the MIC endpoint.
Compounds of the present invention have MIC's ≦20 μg/ml versus all the organisms named above.

[1] = versus all the organisms named above (S. aureus WCUH29, S. pneumoniae 1629, S. pyogenes CN 10, E. faecalis 2, H. influenzae NEMC1, E. coli 7623, M. catarrhalis Ravasio), read-out: MIC

Structure (SMILES)	MIC [1] [µg/mL]	MIC [µg/mL]
COc1ccc2ncc(F)c(CCN3CCC(NCc4ccc5c(n4)NC(=O)CS5)CC3)c2c1.Cl.Cl [Example 31, 6-({1-[2-(3-Fluoro-6-methoxyquinolin-4-yl)ethyl]piperidin-4-ylamino}methyl)-4H-pyrido[3,2-b][1,4]thiazin-3-one dihydrochloride]	≤ 2	–
COc1ccc2ncc(F)c(CCN3CCC(NCc4cc5c(cn4)OCCO5)CC3)c2c1.Cl.Cl [Example 32, {1-[2-(3-Fluoro-6-methoxy-quinolin-4-yl)-ethyl]-piperidin-4-yl}-(2,3-dihydro-[1,4]dioxino[2,3-c]pyridin-7-ylmethyl)-amine dihydrochloride]	≤ 2	–
COc1ccc2ncc(Br)c(CCN3CCC(NCc4cc5c(cn4)OCCO5)CC3)c2c1.Cl.Cl [Example 44, {1-[2-(3-Bromo-6-methoxy-quinolin-4-yl)-ethyl]-piperidin-4-yl}-(2,3-dihydro-[1,4]dioxino[2,3-c]pyridin-7-ylmethyl)-amine Dihydrochloride]	≤ 2	–
COc1cc(F)c2ncc(F)c(CCN3CCC(NCc4cc5c(cn4)OCCO5)CC3)c2c1.Cl.Cl [Example 47, 1-{2-[3,8-difluoro-6-(methoxy)-4-quinolinyl]ethyl}-N-(2,3-dihydro[1,4]dioxino[2,3-c]pyridin-7-ylmethyl)-4-piperidinamine dihydrochloride]	≤ 2	–
COc1cc(F)c2ncc(F)c(CCN3CCC(NCc4cnc5c(c4)NC(=O)CS5)CC3)c2c1.Cl.Cl [Example 48, 7-{[(1-{2-[3,8-Difluoro-6-(methoxy)-4-quinolinyl]ethyl}-4-piperidinyl)amino]methyl}-1H-pyrido[2,3-b][1,4]thiazin-2(3H)-one dihydrochloride]	≤ 2	–
COc1cc(F)c2ncc(F)c(CCN3CCC(NCc4cc5c(cn4)OCO5)CC3)c2c1.Cl.Cl [Example 51, 1-{2-[3,8-difluoro-6-(methoxy)-4-quinolinyl]ethyl}-N-([1,3]dioxolo[4,5-c]pyridin-6-ylmethyl)-4-piperidinamine dihydrochloride]	≤ 2	–
Cl.Cl.Clc1cnc2ccc3c(c2c1CCN1CCC(NCc2cc4c(cn2)OCCO4)CC1)OCCO3 [Example 52, {1-[2-(9-Chloro-2,3-dihydro-[1,4]dioxino[2,3-f]quinolin-10-yl)-ethyl]-piperidin-4-yl}-(2,3-dihydro-[1,4]dioxino[2,3-c]pyridin-7-ylmethyl)-amine dihydrochloride]	≤ 2	–
COc1ccc2ncc(F)c(CCN3CCC(NCc4cc5c(cn4)SCCN5)CC3)c2n1.Cl.Cl [Example 54, N-(2,3-Dihydro-1H-pyrido[3,4-b][1,4]thiazin-7-ylmethyl)-1-{2-[3-fluoro-6-(methoxy)-1,5-naphthyridin-4-yl]ethyl}-4-piperidinamine dihydrochloride]	≤ 2	–
COc1ccc2ncc(F)c(CCN3CCC(NCc4ccc5c(n4)NC(=O)CO5)CC3)c2n1.Cl.Cl [Example 55, 6-{[(1-{2-[3-fluoro-6-(methoxy)-1,5-naphthyridin-4-yl]ethyl}-4-piperidinyl)amino]methyl}-2H-pyrido[3,2-b][1,4]oxazin-3(4H)-one dihydrochloride]	≤ 2	–
COc1ccc2ncc(F)c(CCN3CCC(NCc4cnc5c(c4)NC(=O)CS5)CC3)c2n1.Cl.Cl [Example 56, 7-{[(1-(2-[3-fluoro-6-(methoxy)-1,5-naphthyridin-4-yl]ethyl}-4-piperidinyl)amino]methyl}-1H-pyrido[2,3-b][1,4]thiazin-2(3H)-one dihydrochloride]	≤ 2	–
COc1ccc2ncc(F)c(CCN3CCC(NCc4cc5c(nn4)SCC(=O)N5)CC3)c2n1.Cl.Cl [Example 58, 3-{[(1-{2-[3-fluoro-6-(methoxy)-1,5-naphthyridin-4-yl]ethyl}-4-piperidinyl)amino]methyl}-5H-pyridazino[3,4-b][1,4]thiazin-6(7H)-one dihydrochloride]	≤ 2	–
COc1ccc2ncc(F)c(CCN3CCC(NCc4ccc5c(n4)NC(=O)CS5)CC3)c2n1.Cl.Cl [Example 59, 6-{[(1-{2-[3-Fluoro-6-(methoxy)-1,5-naphthyridin-4-yl]ethyl}-4-piperidinyl)amino]methyl}-2H-pyrido[3,2-b][1,4]thiazin-3(4H)-one dihydrochloride]	≤ 2	–
COc1ccc2ncc(F)c(CCN3CCC(NCc4cc5c(cn4)OCCS5)CC3)c2n1.Cl.Cl [Example 60, N-(2,3-Dihydro[1,4]oxathiino[2,3-c]pyridin-7-ylmethyl)-1-{2-[3-fluoro-6-(methoxy)-1,5-naphthyridin-4-yl]ethyl}-4-piperidinamine dihydrochloride]	≤ 2	–
COc1ccc2ncc(F)c(CCN3CCC(NCc4cc5c(cn4)OCS5)CC3)c2n1.Cl.Cl [Example 61, 1-{2-[3-Fluoro-6-(methoxy)-1,5-naphthyridin-4-yl]ethyl}-N-([1,3]oxathiolo[5,4-c]pyridin-6-ylmethyl)-4-piperidinamine dihydrochloride]	≤ 2	–
COc1ccc2ncc(F)c(CCN3CCC(NC(=O)c4nc5c(cc4F)SCC(=O)N5)CC3)c2n1.Cl.Cl [Example 62, 7-Fluoro-N-(1-{2-[3-fluoro-6-(methoxy)-1,5-naphthyridin-4-yl]ethyl}-4-piperidinyl)-3-oxo-3,4-dihydro-2H-pyrido[3,2-b][1,4]thiazine-6-carboxamide dihydrochloride]	≤ 2	–
COc1ccc2ncc(F)c(CCN3CC[C@H](NCc4ccc5c(n4)NC(=O)CO5)[C@H](O)C3)c2n1.Cl.Cl [Example 68, 6-{[((3R,4S)-1-{2-[3-fluoro-6-(methoxy)-1,5-naphthyridin-4-yl]ethyl}-3-hydroxy-4-piperidinyl)amino]methyl}-2H-pyrido[3,2-b][1,4]oxazin-3(4H)-one dihydrochloride]	–	≤ 2
COc1cc(F)c2ncc(F)c(CCN3CC[C@H](NCc4ccc5c(n4)NC(=O)CO5)[C@H](O)C3)c2c1.Cl.Cl [Example 75, 6-{[((3R,4S)-1-{2-[3,8-difluoro-6-(methoxy)-4-quinolinyl]ethyl}-3-hydroxy-4-piperidinyl)amino]methyl}-2H-pyrido[3,2-b][1,4]oxazin-3(4H)-one dihydrochloride]	≤ 2	–
COc1ccc2ncc(F)c(CCN3CCC(NCC4=CC=C5CCCN=C5N4)CC3)c2c1.Cl.Cl [Example 77, 1-{2-[3-fluoro-6-(methoxy)-4-quinolinyl]ethyl}-N-(1,5,6,7-tetrahydro-1,8-naphthyridin-2-ylmethyl)-4-piperidinamine dihydrochloride]	≤ 2	–
COc1ccc2ncc(F)c(CCN3CCC(NCc4ccc5nsnc5c4)CC3)c2c1.Cl.Cl [Example 79, N-(2,1,3-benzothiadiazol-5-ylmethyl)-1-{2-[3-fluoro-6-(methoxy)-4-quinolinyl]ethyl}-4-piperidinamine dihydrochloride]	–	≤ 2
COc1ccc2ncc(F)c(CCN3CCC(NCc4ccc5c(n4)NCCS5)CC3)c2c1.Cl.Cl [Example 81, N-(3,4-dihydro-2H-pyrido[3,2-b][1,4]thiazin-6-ylmethyl)-1-{2-[3-fluoro-6-(methoxy)-4-quinolinyl]ethyl}-4-piperidinamine dihydrochloride]	–	≤ 2
COc1ccc2ncc(F)c(CCN3CCC(NCc4cnc5c(c4)NC(=O)CS5)CC3)c2c1.Cl.Cl [Example 84, 7-{[(1-{2-[3-fluoro-6-(methoxy)-4-quinolinyl]ethyl}-4-piperidinyl)amino]methyl}1H-pyrido[2,3-b][1,4]thiazin-2(3H)-one dihydrochloride]	≤ 2	–
